Target: T1, AKR1C2 (Homo sapiens, UniProt P52895)
T1 construct: Myc (N); expressed in transfected cells; host or cells: HEK293
T1 sequence (P52895 1-323): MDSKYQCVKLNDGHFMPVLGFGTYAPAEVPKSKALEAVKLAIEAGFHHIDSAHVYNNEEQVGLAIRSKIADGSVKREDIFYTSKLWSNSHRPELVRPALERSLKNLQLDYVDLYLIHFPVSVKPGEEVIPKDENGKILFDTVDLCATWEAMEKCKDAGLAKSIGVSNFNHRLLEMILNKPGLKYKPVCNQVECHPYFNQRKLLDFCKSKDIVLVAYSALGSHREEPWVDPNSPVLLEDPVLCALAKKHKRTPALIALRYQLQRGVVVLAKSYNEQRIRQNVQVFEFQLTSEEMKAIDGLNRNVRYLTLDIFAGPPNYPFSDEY
Experiment: AKR1C2 inhibition assay (DHT to 3α-androstanediol)
Assay type: biochemical
Conditions: 10 µM compound, mean ± SD
Excerpt: For enzymatic assays and inhibitor testing, all enzymes were cloned into bacterial or mammalian expression vectors. AKR1C3 and the human hydroxysteroid dehydrogenases HSD17B1, HSD17B2, HSD17B4 (SDR domain), HSD17B7, and HSD17B10 were cloned into a pGEX vector as described in [71, 72]. The coding sequences for AKR1C1, AKR1C2, and AKR1C4 were cloned by Gateway technology into the pcDNA3-N-MycDest vector according to the manufacturer’s instructions (Life Technologies, Carlsbad, CA, USA). The p11 plasmid coding for HSD17B14 (S205 variant) was a gift from Udo Opperman SGC Oxford, UK. For assays with HSD17B3, HEK293 cells stably expressing HSD17B3 were used. Enzymes were expressed in E. coli BL21 DE3 or E. coli BL21 DE3 Codon Plus RP (Stratagene, San Diego, CA, USA) or in HEK293 cells as described in [71, 72, 73]. Bacterial and cell pellets were stored at −20 °C and −80 °C, respectively, until use.
Inhibition assays were carried out as described in [71, 74]. […] For a detailed assay setup, see Supplementary Table S6. The incubation at 37 °C was stopped with 0.21 M ascorbic acid in methanol:acetic acid 99:1 (v:v) after the time needed to convert approximately 30% of the substrate in a control assay with 1% DMSO, without inhibitor candidate. Substrates and products were extracted from the reaction mixture by solid-phase extraction using C18 cartridges (Phenomenex, Aschaffenburg, Germany) and separated by RP–HPLC in a Beckman–Coulter HPLC Gold system, using the Luna 5 µm C18(2), 125 × 4.0 mm column (Phenomenex). […] Radioactivity was detected by online scintillation counting by using a radioactivity monitor (LB506D, Berthold Technologies, Bad Wildbad, Germany). Conversion of substrates to products was determined by integration of the peak area of the substrate and product peaks in percent. […]

Row | Inhibition of AKR1C2 at 10 µM in % | Inhibition of AKR1C2 at 10 µM in % (listed as 18 (MF11)) [%] | inhibition at 10 µM [%] | SMILES
1 | not more than 42.3% | 21.4 ± 5.1 |  | COc1ccc(/C=C/C(=O)c2c(O)cc(O)cc2OC)cc1 [Compound 18]
2 |  |  | 94 ± 0.4 | O=C(/C=C/c1ccc(Cl)cc1Cl)c1c(O)cc(O)cc1O [Compound 23, 2,4-dichloro-2′,4′,6′-trihydroxychalcone]

Source: paper PMC8876231, “Analogues of Natural Chalcones as Efficient Inhibitors of AKR1C3” (Metabolites, 2022)
